{"source": "patent US9499550B2", "about": "(BRISTOL-MYERS SQUIBB COMPANY, priority 2012, dated 2016)", "key": {"[1]": {"tested_on": "HCV genotype 1a (H77 strain) replicon in HUH-7 cells", "assay": "HCV replicon luciferase reporter assay, genotype 1a", "type": "cell-based", "conditions": "Hepatitis C virus, Huh-7, 72 h, HCV genotype 1a replicon luciferase, 3 days incubation, read-out: LE_1a (EC50, range)", "how_it_was_run": "(§1)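 Replicon inhibition for both genotypes was measured as Renilla luciferase signal (EnduRen, 7.5 μM final, 2 h) after 3-day, 37° C exposure of replicon-bearing HUH-7 cells in 4% FCS DMEM, 0.5% DMSO. The 1b construct carries S1179I; the 1a H77 construct carries P1496L and S2204I. Twenty-point, 3-fold dilutions were fitted four-parametrically for EC50, and CC50 was taken from multiplexed Cell Titer-Blue.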"}, "[2]": {"tested_on": "HCV genotype 1b (Con1) replicon in HUH-7 cells", "assay": "HCV replicon luciferase reporter assay, genotype 1b", "type": "cell-based", "conditions": "Hepatitis C virus, Huh-7, 72 h, HCV genotype 1b replicon luciferase, 3 days incubation, read-out: LE_1b (EC50, range)", "how_it_was_run": "as §1"}}, "data": [{"smiles": "CCOc1nnc(O[C@@H]2C[C@H]3C(=O)N[C@]4(C(=O)NS(=O)(=O)C5CC5)C[C@H]4/C=C\\CC[C@H](C)C[C@@H](C)[C@H](NC(=O)OC(C)(C)C)C(=O)N3C2)c2ccccc12", "note": "[Compound 5034, tert-butyl ((2R,6S,7R,9S,13aS,14aR,16aS,Z)-14a-((cyclopropylsulfonyl)carbamoyl)-2-((4-ethoxyphthalazin-1-yl)oxy)-7,9-dimethyl-5,16-dioxo-1,2,3,5,6,7,8,9,10,11,13a,14,14a,15,16,16a-hexadecahydrocyclopropa[e]pyrrolo[1,2-a][1,4]diazacyclopentadecin-6-yl)carbamate]", "values": [{"measurement": "EC50", "setting": "[1]", "result": "4.82 to 103", "unit": "nM"}, {"measurement": "EC50", "setting": "[2]", "result": "4.82 to 103", "unit": "nM"}]}, {"smiles": "CCOc1nnc(O[C@@H]2C[C@H]3C(=O)N[C@]4(C(=O)NS(=O)(=O)C5CC5)C[C@H]4/C=C\\CC[C@@H](C)C[C@@H](C)[C@H](NC(=O)OC(C)(C)C)C(=O)N3C2)c2ccccc12", "note": "[Compound 5035, tert-butyl ((2R,6S,7R,9R,13aS,14aR,16aS,Z)-14a-((cyclopropylsulfonyl)carbamoyl)-2-((4-ethoxyphthalazin-1-yl)oxy)-7,9-dimethyl-5,16-dioxo-1,2,3,5,6,7,8,9,10,11,13a,14,14a,15,16,16a-hexadecahydrocyclopropa[e]pyrrolo[1,2-a][1,4]diazacyclopentadecin-6-yl)carbamate]", "values": [{"measurement": "EC50", "setting": "[1]", "result": "< 5.46", "unit": "nM"}, {"measurement": "EC50", "setting": "[2]", "result": "< 5.46", "unit": "nM"}]}, {"smiles": "CCOc1nnc(O[C@@H]2C[C@H]3C(=O)N[C@]4(C(=O)NS(=O)(=O)C5CC5)C[C@H]4/C=C\\CC[C@H](C)C[C@@H](C)[C@H](NC(=O)OC(C)(C)C(F)(F)F)C(=O)N3C2)c2ccccc12", "note": "[Compound 5036, 1,1,1-trifluoro-2-methylpropan-2-yl((2R,6S,7R,9S,13aS,14aR,16aS,Z)-14a-((cyclopropylsulfonyl)carbamoyl)-2-((4-ethoxyphthalazin-1-yl)oxy)-7,9-dimethyl-5,16-dioxo-1,2,3,5,6,7,8,9,10,11,13a,14,14a,15,16,16a-hexadecahydrocyclopropa[e]pyrrolo[1,2-a][1,4]diazacyclopentadecin-6-yl)carbamate]", "values": [{"measurement": "EC50", "setting": "[1]", "result": "4.82 to 103", "unit": "nM"}, {"measurement": "EC50", "setting": "[2]", "result": "4.82 to 103", "unit": "nM"}]}, {"smiles": "CCOc1nnc(O[C@@H]2C[C@H]3C(=O)N[C@]4(C(=O)NS(=O)(=O)C5CC5)C[C@H]4/C=C\\CC[C@@H](C)C[C@@H](C)[C@H](NC(=O)OC(C)(C)C(F)(F)F)C(=O)N3C2)c2ccccc12", "note": "[Compound 5037, 1,1,1-trifluoro-2-methylpropan-2-yl((2R,6S,7R,9R,13aS,14aR,16aS,Z)-14a-((cyclopropylsulfonyl)carbamoyl)-2-((4-ethoxyphthalazin-1-yl)oxy)-7,9-dimethyl-5,16-dioxo-1,2,3,5,6,7,8,9,10,11,13a,14,14a,15,16,16a-hexadecahydrocyclopropa[e]pyrrolo[1,2-a][1,4]diazacyclopentadecin-6-yl)carbamate]", "values": [{"measurement": "EC50", "setting": "[1]", "result": "< 5.46", "unit": "nM"}, {"measurement": "EC50", "setting": "[2]", "result": "< 5.46", "unit": "nM"}]}, {"smiles": "[2H]C([2H])([2H])C(OC(=O)N[C@@H]1C(=O)N2C[C@H](Oc3nnc(OCC)c4ccccc34)C[C@H]2C(=O)N[C@]2(C(=O)NS(=O)(=O)C3CC3)C[C@H]2/C=C\\CC[C@H](C)C[C@H]1C)(C([2H])([2H])[2H])C(F)(F)F", "note": "[Compound 5038]", "values": [{"measurement": "EC50", "setting": "[1]", "result": "4.82 to 103", "unit": "nM"}, {"measurement": "EC50", "setting": "[2]", "result": "4.82 to 103", "unit": "nM"}]}, {"smiles": "[2H]C([2H])([2H])C(OC(=O)N[C@@H]1C(=O)N2C[C@H](Oc3nnc(OCC)c4ccccc34)C[C@H]2C(=O)N[C@]2(C(=O)NS(=O)(=O)C3CC3)C[C@H]2/C=C\\CC[C@@H](C)C[C@H]1C)(C([2H])([2H])[2H])C(F)(F)F", "note": "[Compound 5039]", "values": [{"measurement": "EC50", "setting": "[1]", "result": "< 5.46", "unit": "nM"}, {"measurement": "EC50", "setting": "[2]", "result": "< 5.46", "unit": "nM"}]}, {"smiles": "CCOc1nnc(O[C@@H]2C[C@H]3C(=O)N[C@]4(C(=O)NS(=O)(=O)C5CC5)C[C@H]4/C=C\\CC[C@H](C)C[C@@H](C)[C@H](NC(=O)NC(C)(C)C)C(=O)N3C2)c2ccccc12", "note": "[Compound 5040, (2R,6S,7R,9S,13aS,14aR,16aS,Z)-6-(3-(tert-butyl)ureido)-N-(cyclopropylsulfonyl)-2-((4-ethoxyphthalazin-1-yl)oxy)-7,9-dimethyl-5,16-dioxo-1,2,3,5,6,7,8,9,10,11,13a,14,14a,15,16,16a-hexadecahydrocyclopropa[e]pyrrolo[1,2-a][1,4]diazacyclopentadecine-14a-carboxamide]", "values": [{"measurement": "EC50", "setting": "[1]", "result": "> 87.4", "unit": "nM"}, {"measurement": "EC50", "setting": "[2]", "result": "> 87.4", "unit": "nM"}]}, {"smiles": "CCOc1nnc(O[C@@H]2C[C@H]3C(=O)N[C@]4(C(=O)NS(=O)(=O)C5CC5)C[C@H]4/C=C\\CC[C@@H](C)C[C@@H](C)[C@H](NC(=O)NC(C)(C)C)C(=O)N3C2)c2ccccc12", "note": "[Compound 5041, (2R,6S,7R,9R,13aS,14aR,16aS,Z)-6-(3-(tert-butyl)ureido)-N-(cyclopropylsulfonyl)-2-((4-ethoxyphthalazin-1-yl)oxy)-7,9-dimethyl-5,16-dioxo-1,2,3,5,6,7,8,9,10,11,13a,14,14a,15,16,16a-hexadecahydrocyclopropa[e]pyrrolo[1,2-a][1,4]diazacyclopentadecine-14a-carboxamide]", "values": [{"measurement": "EC50", "setting": "[1]", "result": "< 5.46", "unit": "nM"}, {"measurement": "EC50", "setting": "[2]", "result": "4.82 to 103", "unit": "nM"}]}, {"smiles": "CCOc1nnc(O[C@@H]2C[C@H]3C(=O)N[C@]4(C(=O)NS(=O)(=O)C5CC5)C[C@H]4/C=C\\CC[C@H](C)C[C@@H](CC)[C@H](NC(=O)OC(C)(C)C)C(=O)N3C2)c2ccccc12", "note": "[Compound 5042, tert-butyl ((2R,6S,7R,9S,13aS,14aR,16aS,Z)-14a-((cyclopropylsulfonyl)carbamoyl)-2-((4-ethoxyphthalazin-1-yl)oxy)-7-ethyl-9-methyl-5,16-dioxo-1,2,3,5,6,7,8,9,10,11,13a,14,14a,15,16,16a-hexadecahydrocyclopropa[e]pyrrolo[1,2-a][1,4]diazacyclopentadecin-6-yl)carbamate]", "values": [{"measurement": "EC50", "setting": "[1]", "result": "4.82 to 103", "unit": "nM"}, {"measurement": "EC50", "setting": "[2]", "result": "4.82 to 103", "unit": "nM"}]}, {"smiles": "CCOc1nnc(O[C@@H]2C[C@H]3C(=O)N[C@]4(C(=O)NS(=O)(=O)C5CC5)C[C@H]4/C=C\\CC[C@@H](C)C[C@@H](CC)[C@H](NC(=O)OC(C)(C)C)C(=O)N3C2)c2ccccc12", "note": "[Compound 5043, tert-butyl ((2R,6S,7R,9R,13aS,14aR,16aS,Z)-14a-((cyclopropylsulfonyl)carbamoyl)-2-((4-ethoxyphthalazin-1-yl)oxy)-7-ethyl-9-methyl-5,16-dioxo-1,2,3,5,6,7,8,9,10,11,13a,14,14a,15,16,16a-hexadecahydrocyclopropa[e]pyrrolo[1,2-a][1,4]diazacyclopentadecin-6-yl)carbamate]", "values": [{"measurement": "EC50", "setting": "[1]", "result": "< 5.46", "unit": "nM"}, {"measurement": "EC50", "setting": "[2]", "result": "< 5.46", "unit": "nM"}]}, {"smiles": "CCOc1nnc(O[C@@H]2C[C@H]3C(=O)N[C@]4(C(=O)NS(=O)(=O)C5CC5)C[C@H]4/C=C\\CC[C@H](C)C[C@@H](CC)[C@H](NC(=O)OC(C)(C)C(F)(F)F)C(=O)N3C2)c2ccccc12", "note": "[Compound 5044, 1,1,1-trifluoro-2-methylpropan-2-yl((2R,6S,7R,9S,13aS,14aR,16aS,Z)-14a-((cyclopropylsulfonyl)carbamoyl)-2-((4-ethoxyphthalazin-1-yl)oxy)-7-ethyl-9-methyl-5,16-dioxo-1,2,3,5,6,7,8,9,10,11,13a,14,14a,15,16,16a-hexadecahydrocyclopropa[e]pyrrolo[1,2-a][1,4]diazacyclopentadecin-6-yl)carbamate]", "values": [{"measurement": "EC50", "setting": "[1]", "result": "4.82 to 103", "unit": "nM"}, {"measurement": "EC50", "setting": "[2]", "result": "4.82 to 103", "unit": "nM"}]}, {"smiles": "CCOc1nnc(O[C@@H]2C[C@H]3C(=O)N[C@]4(C(=O)NS(=O)(=O)C5CC5)C[C@H]4/C=C\\CC[C@@H](C)C[C@@H](CC)[C@H](NC(=O)OC(C)(C)C(F)(F)F)C(=O)N3C2)c2ccccc12", "note": "[Compound 5045, 1,1,1-trifluoro-2-methylpropan-2-yl((2R,6S,7R,9R,13aS,14aR,16aS,Z)-14a-((cyclopropylsulfonyl)carbamoyl)-2-((4-ethoxyphthalazin-1-yl)oxy)-7-ethyl-9-methyl-5,16-dioxo-1,2,3,5,6,7,8,9,10,11,13a,14,14a,15,16,16a-hexadecahydrocyclopropa[e]pyrrolo[1,2-a][1,4]diazacyclopentadecin-6-yl)carbamate]", "values": [{"measurement": "EC50", "setting": "[1]", "result": "< 5.46", "unit": "nM"}, {"measurement": "EC50", "setting": "[2]", "result": "< 5.46", "unit": "nM"}]}, {"smiles": "CCOc1nnc(O[C@@H]2C[C@H]3C(=O)N[C@]4(C(=O)NS(=O)(=O)C5(C)CC5)C[C@H]4/C=C\\CC[C@H](C)C[C@@H](CC)[C@H](NC(=O)OC(C)(C)C)C(=O)N3C2)c2ccccc12", "note": "[Compound 5046, tert-butyl ((2R,6S,7R,9S,13aS,14aR,16aS,Z)-2-((4-ethoxyphthalazin-1-yl)oxy)-7-ethyl-9-methyl-14a-(((1-methylcyclopropyl)sulfonyl)carbamoyl)-5,16-dioxo-1,2,3,5,6,7,8,9,10,11,13a,14,14a,15,16,16a-hexadecahydrocyclopropa[e]pyrrolo[1,2-a][1,4]diazacyclopentadecin-6-yl)carbamate]", "values": [{"measurement": "EC50", "setting": "[1]", "result": "4.82 to 103", "unit": "nM"}, {"measurement": "EC50", "setting": "[2]", "result": "< 5.46", "unit": "nM"}]}, {"smiles": "CCOc1nnc(O[C@@H]2C[C@H]3C(=O)N[C@]4(C(=O)NS(=O)(=O)C5(C)CC5)C[C@H]4/C=C\\CC[C@@H](C)C[C@@H](CC)[C@H](NC(=O)OC(C)(C)C)C(=O)N3C2)c2ccccc12", "note": "[Compound 5047, tert-butyl ((2R,6S,7R,9R,13aS,14aR,16aS,Z)-2-((4-ethoxyphthalazin-1-yl)oxy)-7-ethyl-9-methyl-14a-(((1-methylcyclopropyl)sulfonyl)carbamoyl)-5,16-dioxo-1,2,3,5,6,7,8,9,10,11,13a,14,14a,15,16,16a-hexadecahydrocyclopropa[e]pyrrolo[1,2-a][1,4]diazacyclopentadecin-6-yl)carbamate]", "values": [{"measurement": "EC50", "setting": "[1]", "result": "< 5.46", "unit": "nM"}, {"measurement": "EC50", "setting": "[2]", "result": "< 5.46", "unit": "nM"}]}, {"smiles": "CCOc1nnc(O[C@@H]2C[C@H]3C(=O)N[C@]4(C(=O)NS(=O)(=O)C5(C)CC5)C[C@H]4/C=C\\CC[C@H](C)C[C@@H](CC)[C@H](NC(=O)OC(C)(C)C(F)(F)F)C(=O)N3C2)c2ccccc12", "note": "[Compound 5048, 1,1,1-trifluoro-2-methylpropan-2-yl((2R,6S,7R,9S,13aS,14aR,16aS,Z)-2-((4-ethoxyphthalazin-1-yl)oxy)-7-ethyl-9-methyl-14a-(((1-methylcyclopropyl)sulfonyl)carbamoyl)-5,16-dioxo-1,2,3,5,6,7,8,9,10,11,13a,14,14a,15,16,16a-hexadecahydrocyclopropa[e]pyrrolo[1,2-a][1,4]diazacyclopentadecin-6-yl)carbamate]", "values": [{"measurement": "EC50", "setting": "[1]", "result": "4.82 to 103", "unit": "nM"}, {"measurement": "EC50", "setting": "[2]", "result": "4.82 to 103", "unit": "nM"}]}]}
